Measured values: patent publication US20060194776A1, “Compositions and methods for treating tissue ischemia” (priority 2003, published 2006)
Where two headings read alike, the source gives them in different places.

Tests used:
[1] = system: endothelial progenitor cells (EPCs) in peripheral blood
Method: (§1) Peripheral blood mononuclear cells (PBMNCS) were isolated from 500 μl of peripheral blood obtained from each mouse. PBMNCs were cultured in EBM media (Clonetics, San Diego, Calif.) with 5% fetal bovine serum (FBS), antibiotics, and growth factors (EPC medium) on four-well glass slides coated with rat plasma vitronectin (Sigma) in 0.5% gelatin solution. Four days after culture, EPCs, recognized as attaching spindle-shaped cells, were assayed by co-staining with acetylated LDL (acLDL)-DiI (Biomedical Technologies, Stoughton, Mass.) and Bandeiraea simplicifolia (BS-1) lectin I (Vector Laboratories, Burlingame, Calif.), indicators of endothelial lineage, and conjugated with FITC (Sigma). EPCs were identified as double-positive cells under fluorescent microscopy. The number of double-positive cells per sample, measured in fifteen fields under 20× magnification, was counted in a blinded manner.

[2] = system: BS lectin 1 and β-gal double-positive cells; details: one week after AMI; 400×
Method: Apex-sections from the Tie-2/LZ/BMT mice were embedded in OCT compound (Miles Scientific) and snap-frozen in liquid nitrogen for fluorescence microscopy immediately after sacrifice. Immunohistochemical staining was performed using antibodies against the rabbit anti-B-galactosidase IgG (CORTEX Biochem) and the murine-specific EC marker fluorescein griffonia simplicifolia lectin I (Vector Laboratories).
Sections of ischemic (FIGS. 12A-12F) and intact (FIGS. 13A-13F) myocardium were stained for both BS lectin 1 (green fluorescence) and β-galactosidase (red fluorescence).

MMP-2 = details: one week after MI; RT-PCR
Method: To clarify the mechanism of BM-EPC kinetics induced by AMD3100, RT-PCR was performed for MMP-9 mRNA expression on BM-mononuclear cells one week after MI was performed. RNA was extracted from mononuclear cells isolated from bone marrow using TRIzol reagent (Invitrogen) according to the manufacture's instruction. Reverse transcriptase-polymerase chain reaction (RT-PCR) of the MMP-9 and GAPDH genes was performed using 1 μg of total RNA. PCR was performed for 25 cycles for both MMP-9 and GAPDH; each cycle maintained 94° C. for 30 seconds and 64° C. for three minutes. Amplification was carried out in 20-μl reaction mixtures containing 0.4 U Taq polymerase.

[3] = system: capillaries of left ventricular myocardium; details: two weeks after AMI
Method: (§2) The explanted hearts of sacrificed mice were sliced in a bread-loaf fashion into transverse sections from apex to base (base-, mid-, and apex-portions) and fixed with 4% paraformaldehyde. Tissues were embedded in paraffin and sectioned for elastic tissue/trichrome staining and immunohistochemistry using the murine-specific EC marker Bandeiraea simplicifolia lectin I (Isolectin B4) (Vector laboratories).
(§3) Capillary density was assessed by histological examination of five randomly selected fields of tissue sections from segments of the left ventricular myocardium served by the occluded LAD. Capillaries were recognized as tubular structures positive for isolectin B4. Elastic tissue/trichrome-stained tissues from the mice four weeks after MI were used to measure the average ratio of the external circumference of fibrosis area to LV area.

left ventricle fibrosis = details: two weeks after AMI
Method: as §2, §3

[4] = system: X-gal positive cells (bone-marrow derived endothelial cells) in left ventricle; details: for number of X-gal positive cells: infarct and border area, Tie2-LacZ/BMT mice
Excerpt: This Example describes the experimental design of the Tie2-LacZ/BMT mouse model. […] FVB/N background mice (n=30) were irradiated to kill their endogenous bone marrow. They were then given a bone marrow transplant (BMT) of 2×10^6 mononuclear cells (MNCs) derived from age-matched (4 weeks old) Tie2-LacZ mice (FVB/N-TgN[TIE2LacZ]182Sato, Jackson Lab). AMIs were induced in the mice (now called Tie2-LacZ/BMT mice) by LAD ligation four weeks after BMT, by which time the bone marrow of the recipient mice had been reconstituted. Right after AMI, the mice were each given a single subcutaneous injection of AMD-3100 (125 μg) or saline (control). Bone marrow cells were obtained using procedures described above. Bone marrow mononuclear cells were also isolated by density centrifugation. Tissue analysis was done at one or two weeks.
Tie-2/LZ/BMT mice were sacrificed at one and two weeks after MI. The explanted hearts were sliced in a bread-loaf fashion into transverse sections from apex to base (base-, mid-, and apex-portions). Mid-portions of the hearts were fixed in 4% paraformaldehyde for three hours at room temperature and incubated in X-gal solution overnight at 37° C. The target tissue samples were then placed in PBS [need to spell this out] and examined under a dissecting microscope for macroscopic identification of lacZ-expressing cells. Histological sections of the mid-portion heart tissue were counterstained with hematoxylin and eosin and assessed by light microscopy. The number of X-gal positive cells in six randomly chosen fields at 40× magnification were counted in a blinded manner.
Left ventricle sections of AMD-3100-treated and control Tie2-LacZ/BMT mice were analyzed one and two weeks after AMI. […] The quantitative analysis of X-gal positive cells was evaluated by histological examination of six randomly selected fields in the infarct and border area.

[5] = system: EPCs isolated from peripheral blood; details: one week after MI
Method: (§4) Fluorescence-activated cell sorting (FACS) was used to identify EPCs from mononuclear cells isolated both from peripheral blood and bone marrow. The viable mononuclear cell population was analyzed for the expression of Sca-1-FITC (Pharmingen) and Flk-1 (Santa Cruz) conjugated with the corresponding phycoerythrin-labeled secondary antibody (Sigma). Isotype-identical antibodies served as negative controls. Immunofluorescence-labeled cells were fixed with 2% paraformaldehyde and analyzed by quantitative flow cytometry using a FACStar flow cytometer (Becton Dickinson) and Cell Quest Software that counted 10,000 events per sample.

[6] = system: EPCs in BM mononuclear cells; details: one week after MI
Method: as §4

EPCs in peripheral blood = system: EPCs in peripheral blood
Method: as §1
To evaluate the effect of AMD-3100 on circulating EPC kinetics, EPC counts (cells/mm^2) were taken from peripheral blood one and two weeks after AMI. At each time point after the induction of MI, mononuclear cells were isolated from peripheral blood and total BM cells that had been obtained by flushing the tibias and femurs. EPCs were counted by culturing as described in Example 1, and stained with both acLDL-DiI and BS-1 lectin. Double positive cells were counted in 15 fields under objective 20× magnification per sample in a blinded manner.

mice after AMI = system: mice after AMI
Method: (§5) Eight-week old male FVB mice were anesthetized with sodium pentobarbital (50 mg/kg IP). The animals were intubated orally with a 22G IV catheter and artificially ventilated with a respirator (Harvard Apparatus). A left intercostal thoracotomy was performed and the ribs were retracted with 5-0 polypropylene sutures. After the pericardium was opened, the left anterior descending (LAD) branch of the left coronary artery was ligated proximal to the bifurcation between the LAD and the diagonal branch using 8-0 polypropylene sutures and visualized with a dissecting microscope. Positive end-expiratory pressure was applied to fully inflate the lungs, and the chest was closed with 7-0 polypropylene sutures. After the closure of chest wall, mice randomly received either a single subcutaneous injection of 125 μg AMD3100 (AMD group) or saline (control group). After physiological assessment at one, two and four weeks after MI, a subgroup of the mice were euthanized by intravenous administration of a lethal dose of pentobarbital.
All values were expressed as mean±the standard error of the mean. Statistical significance was evaluated using Wilcoxon Rank Sum Test for comparisons between mice receiving AMD3100 and those receiving saline. Overall survival of all the mice was assessed by Kaplan-Meier analysis. Survival in individual experimental groups was also analyzed by Fisher's extract probability test. A p value of less than 0.05 was considered statistically significant.

[7] = system: FVB mice after MI (LAD ligation)
Method: as §5
Transthoracic echocardiography (SONOS 5500, Hewlett Packard) was performed just before MI and one, two and four weeks after MI. Left ventricular diastolic (LVDd) and systolic (LVDs) dimensions and fractional shortening were measured at the mid-papillary muscle level. Hemodynamic measurements were obtained at two and four weeks after MI using a 1.0-French high-fidelity pressure catheter (Millar Instruments, Houston, Tex.) via the left carotid artery. LV systolic pressure and maximal positive (+dP/dt) and negative (−dP/dt) pressure development were recorded after stabilization of LV function and heart rate.

[8] = 1 week after MI, 125 μg s.c. after MI
[9] = 2 weeks after MI, 125 μg s.c. after MI
[10] = 2 weeks after MI, 125 μg s.c. after MI, listed as AMD
[11] = 4 weeks after MI, 125 μg s.c. after MI
[12] = 4 weeks after MI, 125 μg s.c. after MI, listed as AMD

For c1cc(CN2CCCNCCNCCCNCC2)ccc1CN1CCCNCCNCCCNCC1 [AMD-3100, 1,1′-[1,4-phenylene-bis(methylene)]-bis-1,4,8,11-tetraazacyclotetradecane], the “maximal MNCs and EPCs (number)” value ([1]; 1 hour after single s.c. injection of 125 μg, FVB/N mice, peripheral blood) was 613±89 cells/mm^2, the “time until MNC/EPC numbers returned to baseline” value ([1]; after single s.c. injection of 125 μg) was at most 24 h and the “time of maximal MNCs and EPCs after drug administration” value ([1]; single s.c. injection of 125 μg) was 1 h. For the same compound, the “double-positive cells in a representative section” value [2] was “eight”, the “double-positive cells in another representative section” value [2] was “eight” and the “double-positive cells in tissue (merged fluorescence microscopy)” value [2] was “marked increase”. The “expression of MMP-2 in BM mononuclear cells” value (MMP-2) was “not”, the “capillary density in border zone” value [3] was 4005±189 /mm^2 and the “fibrosis area of left ventricle” value (left ventricle fibrosis) was 25±6%. The “number of X-gal positive cells” value ([4]; 1 week after AMI) was 3776±113 /mm2, the “number of X-gal positive cells” value ([4]; 2 weeks after AMI) was 1906±138 μmm2 and the “X-gal staining of the left ventricle (macroscopic) vs controls” value ([4]; one and two weeks after AMI) was “marked increase”. For the same compound, the “EPCs (Sca-1/Flk-1 double positive) in peripheral blood by FACS” value [5] was 11.3±1.4%, the “EPCs (Sca-1/Flk-1 positive) in BM mononuclear cells by FACS” value [6] was 1.9±0.1% and the “number of cultured EPCs” value (EPCs in peripheral blood; four weeks after AMI) was “returned to basline”. For the same compound, the “number of EPCs in peripheral blood” value (EPCs in peripheral blood; one week after AMI) was 868±210 /mm^2, the “number of EPCs in peripheral blood” value (EPCs in peripheral blood; two weeks after AMI) was 556±47 /mm^2 and the mice still living (mice after AMI; 14 weeks after AMI (so in the source), FIG. 4A) was 64%. The mice died (mice after AMI; another group of mice, four weeks after MI, FIG. 4B) was 42%, the “survival rate vs mice receiving saline” value (mice after AMI; four weeks after MI, FIG. 4B) was “higher” and the “FS (fractional shortening)” value [7, 8] was 35 ± 2%. For the same compound, the “HR (heart rate)” value [7, 8] was 494 ± 24 bpm, the LVDd [7, 8] was 3.5 ± 0.1 mm and the LVDs [7, 8] was 2.2 ± 0.1 mm. For the same compound, the “FS (fractional shortening)” value [7, 9] was 34±1%, the “HR (heart rate)” value [7, 9] was 515 ± 16 bpm and the “LV +dP/dt” value [7, 9] was 3383±104 mm Hg/s. For the same compound, the “LV −dP/dt” value [7, 9] was 2213±113 mm Hg/s, the LVDd [7, 9] was 3.8±0.1 mm and the LVDs [7, 9] was 2.5±0.1 mm. The LVEDP [7, 9] was 1.6±0.4 mmHg, the LVSP [7, 9] was 71±2 mmHg and the “FS (fractional shortening)” value [7, 10] was 34±1%. The “LV +dP/dt” value [7, 10] was 3475±168 mm Hg/s, the “LV −dP/dt” value [7, 10] was 2842 ± 200 mm Hg/s and the LVDd [7, 10] was 3.8 ± 0.1 mm. It also gave an LVDs [7, 10] of 2.5 ± 0.1 mm, an LVEDP [7, 10] of 1.5±0.2 mmHg and an LVSP [7, 10] of 73 ± 3 mmHg. The LVDd ([7]; 2 weeks after MI, 125 μg s.c. after MI, listed as AMD3100) was 3.8±0.1 mm, the LVDs ([7]; 3 wks after MI (as printed in text)) was 2.5±0.2 mm and the “HR (heart rate)” value [7, 11] was 473 ± 26 bpm. For the same compound, the “LV −dP/dt” value [7, 11] was 2213 ± 112 mm Hg/s, the LVDd [7, 11] was 4.0±0.1 mm and the LVDs [7, 11] was 2.6±0.2 mm. The “FS (fractional shortening)” value [7, 12] was 28±1%, the “LV +dP/dt” value [7, 12] was 3383±104 mm Hg/s and the LVDd [7, 12] was 4.0 ± 0.1 mm. It also gave an LVDs [7, 12] of 2.9 ± 0.1 mm, an LVEDP [7, 12] of 1.6±0.4 mmHg and an LVSP [7, 12] of 71±2 mmHg. For the same compound, the “difference in heart rate between the two groups” value ([7]; after MI, vs control group) was “no significant difference”, the “FS (fractional shortening)” value ([7]; before MI) was 52 ± 1% and the “HR (heart rate)” value ([7]; before MI) was 510 ± 26 bpm. The LVDd ([7]; before MI) was 2.8 ± 0.1 mm, the LVDs ([7]; before MI) was 1.4 ± 0.1 mm and the “LVDd, LVDs, fractional shortening, and heart rate, difference between the groups” value ([7]; before MI and one week after MI, vs saline) was “not significantly different”. The “difference in LVSP between the groups” value ([7]; two weeks after MI, vs control) was “no significant difference”.
